pEC50, pIC50: −log10 of the molar value.
What was measured:
Plasmodium cynomolgi [1] = assay: Antimalarial activity against schizont stage Plasmodium cynomolgi infected in primary rhesus monkey hepatocytes; assay type: functional, organism-based
Plasmodium cynomolgi [2] = assay: Antimalarial activity against hypnozoites stage Plasmodium cynomolgi infected in primary rhesus monkey hepatocytes; assay type: functional, organism-based
[3] = Inhibition of Plasmodium vivax PI4K
Plasmodium cynomolgi [4] = assay: Antimalarial activity against hypnozoites stage Plasmodium cynomolgi infected in primary rhesus monkey hepatocytes measured on day 5; assay type: functional, organism-based; conditions: 120 h
Plasmodium falciparum [5] = assay: Antimalarial activity against early stage Plasmodium falciparum gametocytes by luciferase reporter gene assay; assay type: functional, organism-based
Plasmodium falciparum [6] = assay: Antimalarial activity against late stage Plasmodium falciparum gametocytes by luciferase reporter gene assay; assay type: functional, organism-based
Plasmodium falciparum [7] = assay: Antimalarial activity against late stage Plasmodium falciparum gametocytes assessed as reduction in gametogenesis exflagellation after 24 hrs; assay type: functional, organism-based
Plasmodium falciparum [8] = assay: Antimalarial activity against stage 5 Plasmodium falciparum assessed as reduction in oocyst formation in mosquito midgut pretreated 24 hrs before feeding by standard membrane-feeding assay; assay type: functional, organism-based
Plasmodium falciparum [9] = assay: Antimalarial activity against stage 5 Plasmodium falciparum assessed as reduction in oocyst formation in mosquito midgut at 1 uM after 24 hrs by standard membrane-feeding assay relative to control; assay type: functional; set-up: scale not given: the % may be the effect or the level left
Plasmodium berghei = assay: Antimalarial activity against Plasmodium berghei infected in mouse assessed reduction in parasitemia; assay type: functional; set-up: scale not given: the % may be the effect or the level left
Plasmodium falciparum [10] = assay: Antimalarial activity Plasmodium falciparum infected in po dosed SCID mouse assessed as reduction in parasite growth administered daily for 4 consecutive days and measured on day 7 by flow cytometric analysis; assay type: functional; conditions: 168 h
[11] = Plasma clearance in dog; assay type: ADME, Canis lupus familiaris
[12] = Plasma clearance in mouse; assay type: ADME, organism-based
[13] = Plasma clearance in rat; assay type: ADME
[14] = Volume of distribution in dog; assay type: ADME, Canis lupus familiaris; conditions: in vivo
[15] = Volume of distribution in mouse; assay type: ADME, organism-based; conditions: in vivo
[16] = Volume of distribution in rat; assay type: ADME; conditions: in vivo
[17] = Half life in dog; assay type: ADME, Canis lupus familiaris; conditions: in vivo
[18] = Half life in monkey; assay type: ADME, Macaca mulatta; conditions: rhesus monkey, in vivo
[19] = Half life in mouse; assay type: ADME, organism-based; conditions: in vivo
[20] = Half life in rat; assay type: ADME; conditions: in vivo
[21] = Oral bioavailability in dog; assay type: ADME, organism-based, Canis lupus familiaris; conditions: in vivo
[22] = Oral bioavailability in monkey; assay type: ADME, organism-based, Macaca mulatta; conditions: rhesus monkey, in vivo
[23] = Plasma clearance in human at 80 to 100 mg; assay type: ADME
[24] = Volume of distribution in human at 80 to 100 mg; assay type: ADME
[25] = Half life in human at 80 to 100 mg; assay type: ADME
[26] = target: Sodium channel protein type 5 subunit alpha (Homo sapiens, UniProt Q14524); assay: Inhibition of Nav1.5 (unknown origin)
Sodium channel protein type 5 subunit alpha, sequence (Q14524 whole entry): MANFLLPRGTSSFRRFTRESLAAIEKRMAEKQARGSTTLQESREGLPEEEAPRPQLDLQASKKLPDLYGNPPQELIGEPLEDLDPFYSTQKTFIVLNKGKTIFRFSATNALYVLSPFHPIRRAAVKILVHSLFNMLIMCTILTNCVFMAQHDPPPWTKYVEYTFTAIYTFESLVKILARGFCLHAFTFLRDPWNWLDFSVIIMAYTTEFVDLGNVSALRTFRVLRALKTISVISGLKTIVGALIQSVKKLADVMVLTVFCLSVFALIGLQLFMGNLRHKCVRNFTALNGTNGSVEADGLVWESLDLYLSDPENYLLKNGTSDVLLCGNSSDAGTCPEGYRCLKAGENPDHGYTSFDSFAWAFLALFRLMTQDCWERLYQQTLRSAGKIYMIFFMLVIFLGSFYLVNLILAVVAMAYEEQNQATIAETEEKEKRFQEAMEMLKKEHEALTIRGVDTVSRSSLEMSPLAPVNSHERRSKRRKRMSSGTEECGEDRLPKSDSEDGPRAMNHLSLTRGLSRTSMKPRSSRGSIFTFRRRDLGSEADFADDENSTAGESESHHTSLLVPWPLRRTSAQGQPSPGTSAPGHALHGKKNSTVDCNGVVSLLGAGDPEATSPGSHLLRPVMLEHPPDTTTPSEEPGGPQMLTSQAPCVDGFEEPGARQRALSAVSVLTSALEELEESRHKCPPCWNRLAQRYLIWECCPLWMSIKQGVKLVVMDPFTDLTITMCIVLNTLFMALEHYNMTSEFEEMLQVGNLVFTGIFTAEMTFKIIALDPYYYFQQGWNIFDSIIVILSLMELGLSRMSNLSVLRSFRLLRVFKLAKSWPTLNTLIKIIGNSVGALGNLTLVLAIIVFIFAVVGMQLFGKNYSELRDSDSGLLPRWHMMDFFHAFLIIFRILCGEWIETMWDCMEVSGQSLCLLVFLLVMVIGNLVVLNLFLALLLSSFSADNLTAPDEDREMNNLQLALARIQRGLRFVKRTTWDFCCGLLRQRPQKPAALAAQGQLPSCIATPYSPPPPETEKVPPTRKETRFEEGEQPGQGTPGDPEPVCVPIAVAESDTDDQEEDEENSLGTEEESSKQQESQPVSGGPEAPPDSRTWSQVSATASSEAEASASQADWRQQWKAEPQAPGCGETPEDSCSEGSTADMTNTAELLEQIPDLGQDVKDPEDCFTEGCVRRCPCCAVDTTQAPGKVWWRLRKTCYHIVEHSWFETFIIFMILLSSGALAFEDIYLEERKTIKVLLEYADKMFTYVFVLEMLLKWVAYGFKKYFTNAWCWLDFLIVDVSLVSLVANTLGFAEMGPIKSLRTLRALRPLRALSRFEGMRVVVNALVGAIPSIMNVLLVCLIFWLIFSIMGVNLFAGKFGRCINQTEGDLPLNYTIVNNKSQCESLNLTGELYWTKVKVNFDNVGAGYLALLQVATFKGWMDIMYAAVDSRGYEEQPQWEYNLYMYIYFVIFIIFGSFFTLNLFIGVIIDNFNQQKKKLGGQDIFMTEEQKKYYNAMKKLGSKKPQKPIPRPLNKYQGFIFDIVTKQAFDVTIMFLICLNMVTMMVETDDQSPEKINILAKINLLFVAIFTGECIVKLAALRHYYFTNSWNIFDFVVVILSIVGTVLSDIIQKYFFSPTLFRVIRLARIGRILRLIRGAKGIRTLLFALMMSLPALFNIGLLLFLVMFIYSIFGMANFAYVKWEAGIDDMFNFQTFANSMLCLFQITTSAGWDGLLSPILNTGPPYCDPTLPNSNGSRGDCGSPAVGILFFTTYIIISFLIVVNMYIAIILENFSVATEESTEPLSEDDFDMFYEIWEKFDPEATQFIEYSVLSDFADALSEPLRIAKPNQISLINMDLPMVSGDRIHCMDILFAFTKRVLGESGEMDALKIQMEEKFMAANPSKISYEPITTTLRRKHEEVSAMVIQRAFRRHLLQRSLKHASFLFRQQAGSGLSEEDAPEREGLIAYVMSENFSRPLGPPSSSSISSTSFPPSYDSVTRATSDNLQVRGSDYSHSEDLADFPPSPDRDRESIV

[27] = target: Voltage-dependent L-type calcium channel subunit alpha-1C (Homo sapiens, UniProt Q13936); assay: Inhibition of Cav1.2 (unknown origin)
Voltage-dependent L-type calcium channel subunit alpha-1C, sequence (Q13936 whole entry): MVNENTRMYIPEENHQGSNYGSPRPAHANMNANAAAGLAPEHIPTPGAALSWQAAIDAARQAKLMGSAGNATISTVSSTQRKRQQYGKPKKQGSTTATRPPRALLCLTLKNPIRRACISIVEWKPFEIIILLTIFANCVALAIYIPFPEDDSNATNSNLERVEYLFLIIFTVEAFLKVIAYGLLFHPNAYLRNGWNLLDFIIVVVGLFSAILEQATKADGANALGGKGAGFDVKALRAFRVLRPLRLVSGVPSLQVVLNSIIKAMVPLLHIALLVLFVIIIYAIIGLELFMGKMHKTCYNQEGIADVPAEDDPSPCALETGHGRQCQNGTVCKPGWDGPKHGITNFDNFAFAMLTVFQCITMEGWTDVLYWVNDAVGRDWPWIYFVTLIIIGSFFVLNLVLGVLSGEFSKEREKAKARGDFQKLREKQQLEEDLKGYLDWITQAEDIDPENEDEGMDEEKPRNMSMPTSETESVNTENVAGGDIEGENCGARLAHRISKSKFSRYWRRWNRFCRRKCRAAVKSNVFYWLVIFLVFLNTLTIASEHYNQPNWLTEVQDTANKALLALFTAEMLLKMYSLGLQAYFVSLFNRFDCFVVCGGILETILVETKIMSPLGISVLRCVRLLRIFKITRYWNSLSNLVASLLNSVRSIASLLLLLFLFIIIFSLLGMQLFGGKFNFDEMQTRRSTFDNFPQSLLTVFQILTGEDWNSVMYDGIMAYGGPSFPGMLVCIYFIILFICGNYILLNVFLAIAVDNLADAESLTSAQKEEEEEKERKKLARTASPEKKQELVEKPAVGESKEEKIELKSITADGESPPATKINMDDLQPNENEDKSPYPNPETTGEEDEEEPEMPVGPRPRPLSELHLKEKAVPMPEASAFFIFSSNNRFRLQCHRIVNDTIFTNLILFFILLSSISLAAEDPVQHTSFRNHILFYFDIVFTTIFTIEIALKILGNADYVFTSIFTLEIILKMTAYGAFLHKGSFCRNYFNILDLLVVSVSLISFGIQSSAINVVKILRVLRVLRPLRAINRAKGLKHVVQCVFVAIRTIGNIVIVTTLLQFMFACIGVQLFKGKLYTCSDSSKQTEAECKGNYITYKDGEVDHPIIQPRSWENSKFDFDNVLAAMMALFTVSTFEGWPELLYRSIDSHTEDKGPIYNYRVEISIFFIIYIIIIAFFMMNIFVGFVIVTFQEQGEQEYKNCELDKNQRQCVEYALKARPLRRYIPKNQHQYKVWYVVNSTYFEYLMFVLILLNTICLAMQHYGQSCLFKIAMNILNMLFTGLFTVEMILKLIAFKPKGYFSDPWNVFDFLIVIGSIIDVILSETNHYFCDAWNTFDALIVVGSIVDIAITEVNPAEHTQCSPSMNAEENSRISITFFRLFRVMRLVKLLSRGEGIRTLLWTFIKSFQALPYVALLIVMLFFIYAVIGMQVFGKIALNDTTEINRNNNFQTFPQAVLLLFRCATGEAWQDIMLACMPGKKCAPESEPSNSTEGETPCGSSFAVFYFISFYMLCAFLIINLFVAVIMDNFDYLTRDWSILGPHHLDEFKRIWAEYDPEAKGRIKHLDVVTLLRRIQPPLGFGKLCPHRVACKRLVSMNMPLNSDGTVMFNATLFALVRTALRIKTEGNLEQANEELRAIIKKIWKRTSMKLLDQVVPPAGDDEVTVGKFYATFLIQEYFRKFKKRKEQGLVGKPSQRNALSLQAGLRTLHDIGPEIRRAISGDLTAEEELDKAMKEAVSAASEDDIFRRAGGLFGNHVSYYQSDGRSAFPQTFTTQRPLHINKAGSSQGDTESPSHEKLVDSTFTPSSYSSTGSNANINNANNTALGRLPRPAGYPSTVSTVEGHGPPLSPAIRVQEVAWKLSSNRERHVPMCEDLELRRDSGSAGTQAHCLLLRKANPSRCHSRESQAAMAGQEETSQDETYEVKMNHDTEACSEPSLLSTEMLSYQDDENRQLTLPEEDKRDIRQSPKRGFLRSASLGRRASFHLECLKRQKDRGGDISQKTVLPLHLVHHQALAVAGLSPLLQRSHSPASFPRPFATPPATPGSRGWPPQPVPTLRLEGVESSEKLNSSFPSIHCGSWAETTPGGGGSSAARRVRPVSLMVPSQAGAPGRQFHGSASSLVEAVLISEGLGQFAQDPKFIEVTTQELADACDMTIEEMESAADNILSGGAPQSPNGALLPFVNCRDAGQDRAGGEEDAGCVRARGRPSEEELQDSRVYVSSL

[28] = AUC (0 to infinity) in human at 5 to 120 mg,po; assay type: ADME; conditions: in vivo
[29] = Half life in human at 5 to 120 mg,po; assay type: ADME; conditions: in vivo
[30] = AUC in human at 5 to 120 mg,po in fed condition; assay type: ADME; conditions: in vivo
[31] = AUC in human at 5 to 120 mg,po in fast condition; assay type: ADME; conditions: in vivo
[32] = Half life in human at 5 to 120 mg,po in fed condition; assay type: ADME; conditions: in vivo
[33] = Half life in human at 5 to 120 mg,po in fast condition; assay type: ADME; conditions: in vivo
Plasmodium falciparum [34] = assay: Ex-vivo antimalarial activity against Plasmodium falciparum serum derived from 40 mg, po treated human after 144 hrs; assay type: functional, organism-based

pIC50 [3]: 8.47
pEC50 (Plasmodium falciparum [5]): 6.67
pEC50 (Plasmodium falciparum [6]): 6.85
pEC50 (Plasmodium falciparum [7]): 7.05
clearance [11]: 0.6 mL/min/kg
clearance [12]: 3 mL/min/kg
clearance [13]: 6.5 mL/min/kg
Vd [14]: 1.3 to 3 L/kg
Vd [15]: 1.3 to 3 L/kg
Vd [16]: 1.3 to 3 L/kg
half-life [17]: 58 h
half-life [18]: 56 h
half-life [19]: 5.6 h
half-life [20]: 9.2 h
bioavailability [21]: 45%
bioavailability [22]: 74%
clearance [23]: 0.333 mL/min
Vd [24]: 2.8 L/kg
half-life [25]: 90 h
AUC(0-inf) [28]: 2140 to 156000 ng·h/mL
half-life [29]: 163 to 252 h
AUC [30]: 29000 ng·h/mL
AUC [31]: 21000 ng·h/mL
half-life [32]: 210 h
half-life [33]: 193 h
pEC50 (Plasmodium falciparum [34]): 7.62
SMILES: CS(=O)(=O)c1ccc(-c2cnc(N)c(-c3ccc(C(F)(F)F)nc3)c2)cc1 [MMV-048]
pEC50 (Plasmodium cynomolgi [1]): 7.19
pEC50 (Plasmodium cynomolgi [2]): 7.21
pEC50 (Plasmodium cynomolgi [4]): < 5.00
pEC50 (Plasmodium falciparum [8]): 6.95
Activity (Plasmodium falciparum [9]): >25%
Activity (Plasmodium berghei): 98 - 99.5%
ED90 (Plasmodium falciparum [10]): 0.57 mg/kg
ED99 (Plasmodium falciparum [10]): 1.1 mg/kg
pIC50 [26]: < 5.00
pIC50 [27]: < 5.00
